Here are results for six molecules from patent US11898168B2, “Methods of promoting esophageal differentiation of pluripotent stem cells” (The Trustees of Columbia University in the City of New York, priority 2017, dated 2024).

What all share (format): cell-based, human
The subject of experiment [1] is hESC RUES2-derived AFE cells. The experiment can be described thus: Specification of anterior foregut endoderm (AFE) towards esophageal progenitor cells, day 6-16, gene expression by qPCR/immunostaining. The method, then: hPSCs were differentiated into endodermal and anterior foregut using a previously described protocol (Huang et al., 2015; Huang et al., 2014). Serum-Free Differentiation (SFD) medium was prepared as follows: 750 ml of reconstituted IMDM (ThermoFisher Scientific), 250 ml of F-12 (Corning), 7.5 ml of BSA (ThermoFisher Scientific), 10 ml of Glutamax (ThermoFisher Scientific), 5 ml of N2 (ThermoFisher Scientific), 10 ml of B27 (ThermoFisher Scientific) and 10 ml of Penicillin/Streptomycin (ThermoFisher Scientific), and adding L-Ascorbic acid (Sigma-Aldrich) and MTG (Sigma-Aldrich) on the day of use to obtain a final concentration of 50 μg/ml and 0.04 μl/ml, respectively. To generate endoderm, hPSCs were detached by Accutase/EDTA and cultured in SFD medium plus 10 μM Rock inhibitor 100 ng/ml Activin A, Y-27632 (Tocris), 2.5 ng FGF2 and 0.5 ng/ml BMP4 (R&D Systems) in 6-well Ultra-Low-Attachment plates (Corning) for 72 hours (day 1-4). At day 4, anterior foregut progenitor cells were further induced by culturing endoderm in SFD medium plus 10 μM SB431542 (Tocris) and 100 ng/ml Noggin (R&D Systems) for 24 hours (day 4-5) and SFD medium plus 10 μM SB431542 and 1 μM IWP-2 (Tocris) for another 24 hours (day 5-6). Cells were maintained at 5% O2/95% N2/5% CO2 from day 1-6.
To induce esophageal progenitor cell differentiation, anterior foregut progenitor cells were cultured from day 6 to day 16 in SFD medium plus 10 μM SB431542 and 50 ng/ml Noggin. From day 16 to day 24, cells were maintained at SFD medium. A previously described protocol was followed to generate lung progenitor cells from AFE (Huang et al., 2015; Huang et al., 2014) in which AFE cells were cultured in 3 μM CHIR99021 (Tocris), 10 ng/ml human FGF10 (R&D Systems), 10 ng/ml human KGF (R&D Systems), 10 ng/ml human BMP4 and 50 nM retinoid acid (RA, Sigma). Cells were cultured at 5% O2/95% N2/5% CO2 at day 6-7 and maintained at 95% air/5% CO2 from day 7 onwards.
For immunofluorescence staining, cells were fixed in 4% paraformaldehyde (PFA) for 15 minutes at room temperature and washed with 1×PBS for three times. Cells were permeabilized with 0.3% Triton X-100 in 1×PBS for 15 minutes. Then cells were incubated in blocking solution (0.3% Triton X-100 plus 2% donkey serum in 1×PBS) for 1 hour. Primary antibodies were added into blocking solution and incubated at 4° C. overnight. The next day, cells were washed with 1×PBS for three times. Secondary antibodies conjugated to Alexa Fluor 488, Cy3, or Alexa Fluor 647 (Jackson Immunoresearch) were incubated for 1 hour. Images were taken using Leica DMI6000 B (Leica Microsystems) or DMi8 (Leica Microsystems) and a Zeiss LSM700 confocal laser scanning microscope. Bright field images were acquired using a Nikon Labophot 2 microscope equipped with a Nikon Digital Sight DS-Ri1 charge-coupled device camera. The thickness and areas composed of KRT13^+ cells were calculated by ImageJ (National Institutes of Health). For X-gal staining, tissues were fixed in 4% paraformaldehyde for 30 minutes and incubated in X-gal solution overnight at 37° C. as previously described (Que et al., 2006).
(§1) Cells were lysed with TRIzol (Invitrogen) and RNA was purified using the RNeasy Mini Kit (QIAGEN). RNA was reversely transcribed to cDNA by the SuperScript III First-Strand SuperMix (Invitrogen). cDNA was quantified by real-time PCR using the iQ SYBR Green Supermix (Bio-Rad) and StepOnePlus™ Real-Time PCR System (Applied Biosystems). The transcript level of each gene was normalized to the ß-actin control using 2(−ΔΔCT) method. Relative gene expression was calculated and reported as fold change compared to the indicated samples using ß-actin normalized transcript level. All qRT-PCR experiments were performed at least triplicate.

In another experiment the test system is NOTCH signaling. The experiment can be described thus: Expression of NOTCH downstream targets in iPSC-derived EPCs. The note with it: 10 μM. The method, then: as §1
(§2) It was then tested whether NOTCH signaling is involved in the differentiation of hPSC-derived EPCs. The iPSC-derived EPCs were treated with 10 μM γ-secretase inhibitor DAPT to block NOTCH signaling. As expected, treatment with DAPT led to downregulation of HESS, HEY1 and HEY2, the downstream targets of NOTCH signaling (Kopan and Ilagan, 2009).

The test system of another experiment is hPSC-derived EPCs. The experiment can be described thus: Squamous differentiation of purified hPSC-derived EPCs (KRT13, INV, KRT14 levels). Here is the method:
To perform cell surface marker staining, cells were disassociated with 0.05% Trypsin-EDTA (ThermoFisher Scientific) and stained with fluorophore conjugated antibodies in FACS buffer (1×PBS, 2% FBS, 0.2 mM EDTA) for 30 min with live/dead staining dye (LIVE/DEAD™ Fixable Violet Dead Cell Stain Kit, ThermoFisher Scientific) to exclude dead cells. Intracellular staining cells were performed according to the manufacturer's instructions in eBioscience™ Foxp3/Transcription Factor Staining Buffer Set (ThermoFisher Scientific). Fixation and permeabilization was performed at room temperature for 1 hour followed by incubation of primary antibody for 1 hour. Cells were washed with 1×PBS and fluorophore-conjugated secondary antibodies were incubated for 1 hour. Stained cells were analyzed BD FACSCanto (BD Biosciences) data were analyzed with FlowJo software (Ashland, Oregon). Sorted EPCAM^+ ITGß4^+ cells were maintained in the medium containing 5% FBS, 20 ng/ml EGF, 20 ng/ml FGF2 and 10 μM Rock inhibitor Y27632.
as §1
The inventors have previously shown that BMP signaling activation promotes terminal differentiation of esophageal progenitors in the developing and adult esophagus (Jiang et al., 2015; Rodriguez et al., 2010). It was asked whether purified hPSCs-derived EPCs (ESC and iPSC-derived) respond to BMP activation in a similar manner.
as §2

The mark [2] stands for this setting: WNT activation in the presence of Noggin and SB431542, FIG. 1F.
The mark [3] stands for this setting: 10 μM, iPSC-derived EPCs, vs vehicle, FIG. 6D.
Setting [4] is: BMP4 treatment vs vehicle, ESC and iPSC-derived EPCs, FIGS. 6A-B.

As for `Cc1c[nH]c(-c2cnc(NCCNc3ccc(C#N)cn3)nc2-c2ccc(Cl)cc2Cl)n1` [GSK inhibitor], in experiment [1] (setting [2]), the “levels of the general foregut marker SOX2” value is recorded as “remained unchanged”, the “levels of the posterior foregut marker HNF6” value was “increased”, the “levels of the posterior foregut marker PROX1” value was “increased” and the p63 expression result is “reduced p63 expression in a dose-dependent manner”.

Turning to `Cc1ccc2nc(NC(=O)CSc3nc4c(c(=O)n3-c3ccccc3)SCC4)sc2c1` [IWP2], in experiment [1] (Noggin plus SB431542 in combination with 0.5, 1 or 2 μM IWP2, day 6 to day 16, gene expression at day 16, FIG. 1I), the esophageal specification result was “does not affect”. For the same molecule, the p63 expression entry in experiment [1] (added to culture treated with Noggin and SB431542 at day 6-16, FIG. 1I) was “did not further promote”.

Consider `C[C@H](NC(=O)Cc1cc(F)cc(F)c1)C(=O)N[C@H](C(=O)OC(C)(C)C)c1ccccc1` [DAPT], for which, in the experiment on NOTCH signaling, the “HESS expression (downstream target of NOTCH signaling)” value is on record as “downregulation”, the “HEY1 expression (downstream target of NOTCH signaling)” value is reported as “downregulation” and the “HEY2 expression (downstream target of NOTCH signaling)” value is reported as “downregulation”. For the same molecule, the “initial EPC commitment from the AFE” value in experiment [1] (DAPT applied during PSC differentiation from AFE to EPC, FIG. 6C) is reported as “did not affect”. Also, in the experiment on hPSC-derived EPCs (setting [3]), the “expression of INV at the transcription and protein levels” value was “reduced expression”; the “expression of KRT13 at the transcription and protein levels” value is recorded as “reduced expression”.

B1: BMP4: BMP signaling activator, growth factor (R&D Systems) (protein, UniProt P12644 293-408, looked up)
Bone morphogenetic protein 4: SPKHHSQRARKKNKNCRRHSLYVDFSDVGWNDWIVAPPGYQAFYCHGDCPFPLADHLNSTNHAIVQTLVNSVNSSIPKACCVPTELSAISMLYLDEYDKVVLKNYQEMVVEGCGCR
With B1, the “differentiation of hPSC-derived EPCs” value in the experiment with hPSC-derived EPCs (BMP4 treatment) is “promotes”. Besides, in the experiment on hPSC-derived EPCs (setting [4]), the “levels of Involucrin (INV)” value is on record as “significantly increase” and the “levels of KRT13” value was “significantly increase”. Further, the “levels of KRT14” value in the experiment with hPSC-derived EPCs (BMP4 treatment, FIG. 6B) was “increased”.

B2: Noggin: BMP inhibitor (R&D Systems) (protein, UniProt Q13253 28-232, looked up)
Noggin: QHYLHIRPAPSDNLPLVDLIEHPDPIFDPKEKDLNETLLRSLLGGHYDPGFMATSPPEDRPGGGGGAAGGAEDLAELDQLLRQRPSGAMPSEIKGLEFSEGLAQGKKQRLSKKLRRKLQMWLWSQTFCPVLYAWNDLGSRFWPRYVKVGSCFSKRSCSVPEGMVCKPSKSVHLTVLRWRCQRRGGQRCGWIPIQYPIISECKCSC
With B2, the “AFE differentiation into p63+ NKX2.1- EPCs” value in experiment [1] (Noggin treatment alone at day 6-16, FIG. 1E) is given as “insufficient”.

B3: DKK1: WNT inhibitor (protein, UniProt O94907 32-266, looked up)
Dickkopf-related protein 1: TLNSVLNSNAIKNLPPPLGGAAGHPGSAVSAAPGILYPGGNKYQTIDNYQPYPCAEDEECGTDEYCASPTRGGDAGVQICLACRKRRKRCMRHAMCCPGNYCKNGICVSSDQNHFRGEIEETITESFGNDHSTLDGYSRRTTLSSKMYHTKGQEGSVCLRSSDCASGLCCARHFWSKICKPVLKEGQVCTKHRRKGSHGLEIFQRCYCGEGLSCRIQKDHHQASNSSRLHTCQRH
As to B3, the p63 expression result in experiment [1] (WNT inhibitor alone, hPSCs, FIG. 1E) is “insufficient”.
